# Tested on: TrkA/CD44 complex in COS-7 cells transfected with TrkA and CD44s or CD44v6
# Assay: PLA TrkA/CD44s or TrkA/CD44v6 complex formation in COS-7 cells
# Type: cell-based, African green monkey (COS-7 cells)
# Conditions: NGF 100 ng/ml, 0, 5 or 30 min
# Experimental: Cells (10,000 cells per well) were grown on acid-washed eight-well glass slides (Thermo Scientific) in the appropriate medium supplemented with 10% FBS for 24 h. After NGF treatment, paraformaldehyde (PAF)-fixed cells were incubated with 4% bovine serum albumin (BSA) or 5% FBS (for 1 h at 20 °C), followed by overnight incubation with primary antibodies (rabbit anti-TrkA or rabbit anti-IgG + mouse anti-pan-CD44; mouse anti-CD44v3; mouse anti-CD44v6; mouse anti-IgG2a; mouse anti-IgG2b; or mouse anti-IgG1). PLA was performed following the manufacturer’s instructions in the assay kit (Duolink PLA; Sigma–Aldrich). To obtain the correct representation of the PLA signal for each condition, 30 fields per condition were observed using a fluorescence microscope (Eclipse TiU; Nikon, Japan). The PLA signals (red dots) were automatically quantified using ImageJ software (with an in-house-developed plug-in). […]
# Supplementary file 13046_2022_2314_MOESM3_ESM.pdf: Additional file 3: Supplementary Figure 1. […] The expression of all CD44 isoforms (A), CD44 variant 3 (B), CD44 variant 6 (C) and TrkA ([…]; D) was evaluated by RT–qPCR (normalized using PUM-1). No expression of CD44, CD44 variants [3 or 6] or TrkA was detected in COS-7 cells (A-D) compared with that in cells transfected with the expression plasmid carrying each protein. […]
substance,measurement,value
"NGF: recombinant human β-NGF (Alomone Labs, Israel)",effect on TrkA/CD44s or TrkA/CD44v6 complex formation (PLA) in COS-7 cells,Neither wild-type COS-7 cells nor COS-7 cells transfected with TrkA and the CD44s or CD44v6 isoform showed the formation of the dynamic TrkA/CD44 complex in PLA

# — article PMC8962522, “Direct interaction of TrkA/CD44v3 is essential for NGF-promoted aggressiveness of breast cancer cells” (Journal of Experimental & Clinical Cancer Research : CR, 2022)
